Structures can show the parent of a compound that is named as a salt.
Assays:
activated human C1 = activated human C1 (Homo sapiens, UniProt P09871); experiment: Test Code 026 (C1 inhibitor); format: biochemical; conditions: in vitro; serial twofold dilution assay, higher well number indicates higher activity
Source text: (§1) An active inhibitor protects C2 from C1 and C4; (ii) Test Code 035 (C3-C9 inhibitor)--This test determines the ability of the late components of human complement (C3-C9) to lyse EAC 142 in the presence of appropriate dilutions of the test compound. An active inhibitor protects EAC 142 from lysis by human C3-C9; (iii) Test Code 036 (C-Shunt inhibitor)--In this test human erythrocytes rendered fragile are lysed in autologous serum via the shunt pathway activated by cobra venom factor in the presence of appropriate dilutions of the test compound. Inhibition of the shunt pathway results in failure of lysis; (iv) Cap 50 Test--Here, appropriate amounts of the test compound are added to a pool of guinea pig serum in vitro, after which the complement level is determined in undiluted serum by the serum capillary tube assay of U.S. Pat. No. 3,876,376. The concentration of compound inhibiting 50% is reported; and (v) Guinea Pig Intraperitoneal Test (GPIP)--Guinea pigs weighing about 300 g are dosed intraperitoneally (i.p.) with 200 mg/kg of the test compound dissolved in saline and adjusted to pH 7-8. Approximately 0.4 ml blood samples, taken by orbital sinus puncture 30 minutes and one hour after injections, are collected directly into centrifuge tubes; 5 ml blood samples, taken by decapitation 2 hours after injection are collected directly into disPo® beakers. The samples were allowed to clot, centrifuged, and the resultant sera were assayed for complement activity using the capillary complement assay referred to above. Percent inhibition is calculated by comparison with simultaneous controls. The results of the GPIP appear in Table I together with results of Test Code 026, 035, 036 and Cap 50.

[1] = system: late components of human complement (C3-C9); experiment: Test Code 035 (C3-C9 inhibitor), lysis of EAC 142; format: biochemical; conditions: in vitro; serial twofold dilution assay, higher well number indicates higher activity
Source text: as §1

[2] = system: shunt pathway activated by cobra venom factor; experiment: Test Code 036 (C-Shunt inhibitor), lysis of fragile human erythrocytes in autologous serum; format: cell-based; conditions: in vitro; serial twofold dilution assay, higher well number indicates higher activity
Source text: as §1

[3] = system: complement activity of sera; experiment: Guinea Pig Intraperitoneal Test (GPIP); format: in vivo; conditions: 200 mg/kg i.p.
Source text: as §1

[4] = system: total hemolytic complement activity of human serum; conditions: in vitro and in vivo, judged by reduction in total hemolytic complement activity; cited from earlier work

## O=S(=O)(O)OC[C@H]1O[C@H](OC[C@H]2O[C@H](O[C@]3(COS(=O)(=O)O)O[C@H](CO[C@@H]4O[C@H](COS(=O)(=O)O)[C@@H](O[C@H]5O[C@H](COS(=O)(=O)O)[C@@H](O[C@H]6O[C@H](COS(=O)(=O)O)[C@@H](OS(=O)(=O)O)[C@H](OS(=O)(=O)O)[C@H]6OS(=O)(=O)O)[C@H](OS(=O)(=O)O)[C@H]5OS(=O)(=O)O)[C@H](OS(=O)(=O)O)[C@H]4OS(=O)(=O)O)[C@@H](OS(=O)(=O)O)[C@@H]3OS(=O)(=O)O)[C@H](OS(=O)(=O)O)[C@@H](OS(=O)(=O)O)[C@@H]2OS(=O)(=O)O)[C@H](OS(=O)(=O)O)[C@@H](OS(=O)(=O)O)[C@H]1OS(=O)(=O)O [drawing 23, O-α-D-Glucopyranosyl(1→4)-O-α-D-glucopyranosyl(1→4)-O-β-D-glucopyranosyl(1→6)-β-D-fructofuranosyl-O-α-D-galactopyranosyl(1→6)-α-D-glucopyranoside eicosakis(H-sulfate) eicosasalt with trimethylamine]
Activated human C1
  C1 026 Wells: 9 Wells
[1]
  C-Late 035 Wells: 2 Wells
[2]
  C-Shunt Inhibition 036 Wells: 5 Wells

## O=S(=O)(O)OC[C@H]1O[C@H](OC[C@H]2O[C@H](O[C@]3(COS(=O)(=O)O)O[C@H](CO[C@@H]4O[C@H](COS(=O)(=O)O)[C@@H](O[C@H]5O[C@H](COS(=O)(=O)O)[C@@H](O[C@H]6O[C@H](COS(=O)(=O)O)[C@@H](OS(=O)(=O)O)[C@H](OS(=O)(=O)O)[C@H]6OS(=O)(=O)O)[C@H](OS(=O)(=O)O)[C@H]5OS(=O)(=O)O)[C@H](OS(=O)(=O)O)[C@H]4OS(=O)(=O)O)[C@@H](OS(=O)(=O)O)[C@@H]3OS(=O)(=O)O)[C@H](OS(=O)(=O)O)[C@@H](OS(=O)(=O)O)[C@@H]2OS(=O)(=O)O)[C@H](OS(=O)(=O)O)[C@@H](OS(=O)(=O)O)[C@H]1OS(=O)(=O)O [drawing 24, O-α-D-Glucopyranosyl(1→4)-O-α-D-glucopyranosyl(1→4)-O-β-D-glucopyranosyl(1→6)-β-D-fructofuranosyl-O-α-D-galactopyranosyl(1→6)-α-D-glucopyranoside eicosakis(H-sulfate), eicosasodium salt]
Activated human C1
  C1 026 Wells: 9 Wells
[1]
  C-Late 035 Wells: 1 Wells
[2]
  C-Shunt Inhibition 036 Wells: 6 Wells
[3]; blood sample 30 minutes after injection
  In vivo Activity (Guinea pigs) % Inhibition Intraperitoneal, 30 minutes: 49%
[3]; blood sample 60 minutes after injection
  In vivo Activity (Guinea pigs) % Inhibition Intraperitoneal, 60 minutes: 67%
[3]; blood sample 120 minutes after injection
  In vivo Activity (Guinea pigs) % Inhibition Intraperitoneal, 120 minutes: 78%

## O=S(=O)(O)OC[C@H]1O[C@H](OC[C@H]2O[C@H](O[C@]3(COS(=O)(=O)O)O[C@H](CO[C@@H]4O[C@H](COS(=O)(=O)O)[C@@H](O[C@H]5O[C@H](COS(=O)(=O)O)[C@@H](O[C@H]6O[C@H](COS(=O)(=O)O)[C@@H](O[C@H]7O[C@H](COS(=O)(=O)O)[C@@H](O[C@H]8O[C@H](COS(=O)(=O)O)[C@@H](O[C@H]9O[C@H](COS(=O)(=O)O)[C@@H](O[C@H]%10O[C@H](COS(=O)(=O)O)[C@@H](OS(=O)(=O)O)[C@H](OS(=O)(=O)O)[C@H]%10OS(=O)(=O)O)[C@H](OS(=O)(=O)O)[C@H]9OS(=O)(=O)O)[C@H](OS(=O)(=O)O)[C@H]8OS(=O)(=O)O)[C@H](OS(=O)(=O)O)[C@H]7OS(=O)(=O)O)[C@H](OS(=O)(=O)O)[C@H]6OS(=O)(=O)O)[C@H](OS(=O)(=O)O)[C@H]5OS(=O)(=O)O)[C@H](OS(=O)(=O)O)[C@H]4OS(=O)(=O)O)[C@@H](OS(=O)(=O)O)[C@@H]3OS(=O)(=O)O)[C@H](OS(=O)(=O)O)[C@@H](OS(=O)(=O)O)[C@@H]2OS(=O)(=O)O)[C@H](OS(=O)(=O)O)[C@@H](OS(=O)(=O)O)[C@H]1OS(=O)(=O)O [drawing 25, O-α-D-Glucopyranosyl(1→4)-[O-α-D-glucopyranosyl(1→4)]5 -O-β-D-glucopyranosyl(1→6)-β-D-fructofuranosyl-O-α-D-galactopyranosyl(1→6)-α-D-glucopyranoside dotriacontakis(H-sulfate), dotriacontasalt with trimethylamine]
Activated human C1
  C1 026 Wells: 9 Wells
[1]
  C-Late 035 Wells: 1 Wells
[2]
  C-Shunt Inhibition 036 Wells: 4 Wells

## O=S(=O)(O)OC[C@H]1O[C@H](OC[C@H]2O[C@H](O[C@]3(COS(=O)(=O)O)O[C@H](CO[C@@H]4O[C@H](COS(=O)(=O)O)[C@@H](O[C@H]5O[C@H](COS(=O)(=O)O)[C@@H](O[C@H]6O[C@H](COS(=O)(=O)O)[C@@H](O[C@H]7O[C@H](COS(=O)(=O)O)[C@@H](O[C@H]8O[C@H](COS(=O)(=O)O)[C@@H](O[C@H]9O[C@H](COS(=O)(=O)O)[C@@H](O[C@H]%10O[C@H](COS(=O)(=O)O)[C@@H](OS(=O)(=O)O)[C@H](OS(=O)(=O)O)[C@H]%10OS(=O)(=O)O)[C@H](OS(=O)(=O)O)[C@H]9OS(=O)(=O)O)[C@H](OS(=O)(=O)O)[C@H]8OS(=O)(=O)O)[C@H](OS(=O)(=O)O)[C@H]7OS(=O)(=O)O)[C@H](OS(=O)(=O)O)[C@H]6OS(=O)(=O)O)[C@H](OS(=O)(=O)O)[C@H]5OS(=O)(=O)O)[C@H](OS(=O)(=O)O)[C@H]4OS(=O)(=O)O)[C@@H](OS(=O)(=O)O)[C@@H]3OS(=O)(=O)O)[C@H](OS(=O)(=O)O)[C@@H](OS(=O)(=O)O)[C@@H]2OS(=O)(=O)O)[C@H](OS(=O)(=O)O)[C@@H](OS(=O)(=O)O)[C@H]1OS(=O)(=O)O [drawing 26, O-α-D-Glucopyranosyl(1→4)-[O-α-D-glucopyranosyl(1→4)]5 -O-β-D-glucopyranosyl(1→6)-β-D-fructofuranosyl-O-α-D-galactopyranosyl(1→6)-α-D-glucopyranoside dotriacontakis(H-sulfate), dotriacontasodium salt]
Activated human C1
  C1 026 Wells: 9 Wells
[1]
  C-Late 035 Wells: 3 Wells
[2]
  C-Shunt Inhibition 036 Wells: 5 Wells

## pentosanpolysulfoester
[4]
  anticomplementary activity on human serum: has an anticomplementary activity on human serum, both in vitro and in vivo

Reference: patent publication US4357326A, “Multi-glucopyranosyl-fructofuranosyl-galactopyranosyl-glucopyranoside sulfate salts and methods of use” (American Cyanamid Company, priority 1981, dated 1982)
